In general, EC50 refers to the concentration at which the effect is half-maximal. The IC90 is the point of the concentration-response curve where the effect stands at 90%.

In experiment [1] the target is human activated kallikrein enzyme (Homo sapiens, UniProt P03952). In words: Inhibition of human activated kallikrein enzyme, fluorogenic peptide substrate assay (500 pM enzyme format). It counts as biochemical. The settings on record: 500 pM activated kallikrein, 300 μM PFR-AMC substrate, 30 min preincubation, 10 min reaction, room temperature; read-out: Primary Dose Response Assay: Average EC50. In short, it runs like this:
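500 pM enzyme preincubated 30 min at room temperature with inhibitor in 20 mM Tris pH 7.5, 150 mM NaCl, 1 mM EDTA, 0.1% PEG-400, 0.1% Triton X-100. Reaction started with 300 μM PFR-AMC and run 10 min at room temperature. AMC fluorescence read at ex 380/em 460 nm, and EC50 values reported as ranges.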

Another experiment concerns the target T1, plasma kallikrein (Homo sapiens, UniProt P03952).
T1 construct: added to sodium citrate collected human or rat plasma in a 96-well microplate; from tissue
In words: Neat human plasma assay (fluorogenic peptide), contact pathway-activated plasma. It counts as biochemical. The settings on record: sodium citrate human plasma (78% final), 10 nM human FXIIa, 100 μM PFR-AMC, room temperature. The procedure: To analyze inhibition of plasma kallikrein in an ex vivo setting, the potency of compounds was measure in contact pathway-activated plasma assays. In a fluorogenic peptide substrate assay, test compounds dissolved in DMSO were added to sodium citrate collected human or rat plasma in a 96-well microplate. Alternatively, citrated plasma was collected from rats administered the compounds orally or by IV. 10 nM of human FXIIa (Enzyme Research Laboratories) diluted in PKa buffer (20 mM Tris-HCl, pH 7.5, 150 mM NaCl, 1 mM EDTA, 0.1% PEG-8000, and 0.1% Triton X-100) was added to the plasma, followed by the 100 μM of the profluorescent, synthetic plasma kallikrein substrate PFR-AMC (also diluted in PKa buffer). Final plasma concentration in the reaction was 78%. Fluorescence was immediately monitored by excitation/emission wavelengths of 360 nm/480 nm respectively over a period of 5 minutes in a microplate reader. The resulting linear increase in fluorescence emission (reflecting PKa proteolysis of PFR-AMC substrate) was fit to extract a proteolytic rate (fluorescent units over time), and this rate was subsequently plotted against compound inhibitor concentration. Resulting plots were fit to a standard 4-parameter IC50/IC90 equation to determine min/max values, IC50/90, and slope. All experimental steps were performed at room temperature.

The structures appear in SMILES notation. Where a name gives a salt, the structure may show the parent alone.

Sequence of human activated kallikrein enzyme (P03952 391-638 limits assumed): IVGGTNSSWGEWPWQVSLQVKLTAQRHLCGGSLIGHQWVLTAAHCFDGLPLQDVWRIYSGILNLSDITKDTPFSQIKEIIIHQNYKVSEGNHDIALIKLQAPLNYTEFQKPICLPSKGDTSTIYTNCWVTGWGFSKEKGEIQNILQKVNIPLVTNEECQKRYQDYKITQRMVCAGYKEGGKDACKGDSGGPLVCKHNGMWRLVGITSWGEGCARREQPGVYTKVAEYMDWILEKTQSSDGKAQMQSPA
Sequence of human activated kallikrein enzyme (P03952 20-390 partner limits assumed): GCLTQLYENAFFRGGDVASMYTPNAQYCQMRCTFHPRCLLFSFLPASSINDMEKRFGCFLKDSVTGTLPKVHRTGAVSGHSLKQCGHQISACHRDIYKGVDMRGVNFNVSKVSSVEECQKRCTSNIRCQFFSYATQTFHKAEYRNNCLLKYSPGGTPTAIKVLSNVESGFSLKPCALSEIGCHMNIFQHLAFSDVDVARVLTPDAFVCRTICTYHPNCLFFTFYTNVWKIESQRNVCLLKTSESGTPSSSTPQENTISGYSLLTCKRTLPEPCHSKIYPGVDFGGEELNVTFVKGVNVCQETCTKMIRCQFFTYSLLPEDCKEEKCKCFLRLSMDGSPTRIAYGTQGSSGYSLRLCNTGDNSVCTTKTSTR
T1 sequence (P03952 391-638 limits assumed): as the sequence (P03952 391-638 limits assumed) above
T1 sequence (P03952 20-390 partner limits assumed): as the sequence (P03952 20-390 partner limits assumed) above

Regarding `O=C(Cc1n[nH]c2ccc(Cl)cc12)Nc1cc(NCc2cn3cc(C4CC4)ccc3n2)ccn1` [Example 26, 2-(5-chloro-1H-indazol-3-yl)-N-(4-(((6-cyclopropylimidazo[1,2-a]pyridin-2-yl)methyl)amino)pyridin-2-yl)acetamide], the EC50 in experiment [1] was not above 0.005 µM. For the same compound, the IC90 against plasma kallikrein lay within 5 to 25 µM. The like results for `Cc1cc(N)nc(C)c1CNc1cc(OCc2cn3cc(C4CC4)ccc3n2)ncn1` [Example 107, N-((6-amino-2,4-dimethylpyridin-3-yl)methyl)-6-((6-cyclopropylimidazo[1,2-a]pyridin-2-yl)methoxy)pyrimidin-4-amine] were, in that order, not above 0.005 µM and 5 to 25 µM. In the same order, the values of `Cc1cc(N)nc(C)c1CNc1cc(OCc2cn3cc(C4CC4)ccc3n2)ccn1` [Example 110, 5-(((4-((6-cyclopropylimidazo[1,2-a]pyridin-2-yl)methoxy)pyridin-2-yl)amino)methyl)-4,6-dimethylpyridin-2-amine] are not above 0.005 µM and 5 to 25 µM. In the same order, the values of `O=C(Cc1ncn2ccc(Cl)cc12)Nc1cc(NCc2cn3cc(C4CC4)cc(N4CCCC4=O)c3n2)ncn1` [Example 12, 2-(7-chloroimidazo[1,5-a]pyridin-1-yl)-N-(6-(((6-cyclopropyl-8-(2-oxopyrrolidin-1-yl)imidazo[1,2-a]pyridin-2-yl)methyl)amino)pyrimidin-4-yl)acetamide] are not above 0.005 µM and 0.5 to 5 µM. Turning to `N#Cc1cc(C2CC2)cn2cc(CNc3ccnc(NC(=O)Cc4ncn5ccc(Cl)cc45)c3)nc12` [Example 30, 2-(7-chloroimidazo[1,5-a]pyridin-1-yl)-N-(4-(((8-cyano-6-cyclopropylimidazo[1,2-a]pyridin-2-yl)methyl)amino)pyridin-2-yl)acetamide], the EC50 in experiment [1] is not above 0.005 µM. In addition, on plasma kallikrein, the IC90 lay within 0.5 to 5 µM. Regarding `CCOC(=O)CCc1nc(NCc2c(C)cc(C(=N)NO)cc2C)cc(OCc2cn3cc(C4CC4)ccc3n2)n1` [Example 73, ethyl 3-(4-((6-cyclopropylimidazo[1,2-a]pyridin-2-yl)methoxy)-6-((4-(N-hydroxycarbamimidoyl)-2,6-dimethylbenzyl)amino)pyrimidin-2-yl)propanoate], the EC50 in experiment [1] was 0.05 to 0.5 µM. Still for that read-out and setting: the same measure for `O=C(Cc1ncn2ccc(Cl)cc12)Nc1cc(NCc2cn3cc(C4CC4)cc(CN4CCOCC4)c3n2)ncn1` [Example 48, 2-(7-chloroimidazo[1,5-a]pyridin-1-yl)-N-(6-(((6-cyclopropyl-8-(morpholinomethyl)imidazo[1,2-a]pyridin-2-yl)methyl)amino)pyrimidin-4-yl)acetamide]: not above 0.005 µM; for `O=C(Cn1nnc2ccc(Cl)cc21)Nc1cc(NCc2cn3cc(C4CC4)ccc3n2)ccn1` [Example 27, 2-(6-chloro-1H-benzo[d][1,2,3]triazol-1-yl)-N-(4-(((6-cyclopropylimidazo[1,2-a]pyridin-2-yl)methyl)amino)pyridin-2-yl)acetamide]: 0.5 to 9 µM; for `CCOC(=O)c1nc(NCc2c(C)cc(C(=N)NO)cc2C)cc(OCc2cn3cc(C4CC4)ccc3n2)n1` [Example 81, ethyl 4-((6-cyclopropylimidazo[1,2-a]pyridin-2-yl)methoxy)-6-((4-(N-hydroxycarbamimidoyl)-2,6-dimethylbenzyl)amino)pyrimidine-2-carboxylate]: 0.05 to 0.5 µM.

With `CCOC(=O)C(C)(C)Cc1nc(NCc2c(C)cc(C(=N)N)cc2C)cc(OCc2cn3cc(C4CC4)ccc3n2)n1` [Example 93, ethyl 3-(4-((4-carbamimidoyl-2,6-dimethylbenzyl)amino)-6-((6-cyclopropylimidazo[1,2-a]pyridin-2-yl)methoxy)pyrimidin-2-yl)-2,2-dimethylpropanoate], the EC50 in experiment [1] was not above 0.005 µM. Still for that read-out and setting: the same measure for `CC(Nc1cc(NC(=O)Cc2ncn3ccc(Cl)cc23)ncn1)c1cn2cc(C3CC3)ccc2n1` (stereo not shown) [Example 45, 2-(7-chloroimidazo[1,5-a]pyridin-1-yl)-N-(6-((1-(6-cyclopropylimidazo[1,2-a]pyridin-2-yl)ethyl)amino)pyrimidin-4-yl)acetamide]: 0.005 to 0.05 µM. In the case of `NC(=O)c1ccc(Cl)cc1CC(=O)Nc1cc(NCc2cn3cc(C4CC4)ccc3n2)ncn1` [Example 11, 4-chloro-2-(2-((6-(((6-cyclopropylimidazo[1,2-a]pyridin-2-yl)methyl)amino)pyrimidin-4-yl)amino)-2-oxoethyl)benzamide], the EC50 in experiment [1] is 0.5 to 9 µM. Same read-out and setting: the same measure for `Cc1cc(N)nc(C)c1CNc1cc(C(O)c2cn3cc(C4CC4)ccc3n2)ncn1` (stereo not shown) [Example 64, (6-(((6-amino-2,4-dimethylpyridin-3-yl)methyl)amino)pyrimidin-4-yl)(6-cyclopropylimidazo[1,2-a]pyridin-2-yl)methanol bisformic acid salt]: 0.005 to 0.05 µM; for `CCOC(=O)CCc1nc(NCc2c(C)cc(C(=N)NC(=O)OCC)cc2C)cc(OCc2cn3cc(C4CC4)ccc3n2)n1` [Example 77, ethyl 3-(4-((6-cyclopropylimidazo[1,2-a]pyridin-2-yl)methoxy)-6-((4-(N-(ethoxycarbonyl)carbamimidoyl)-2,6-dimethylbenzyl)amino)pyrimidin-2-yl)propanoate]: 0.005 to 0.05 µM. Consider `O=C(Cc1ncnc2ccc(Cl)cc12)Nc1cc(NCc2cn3cc(C4CC4)ccc3n2)ncn1` [Example 104, 2-(6-chloroquinazolin-4-yl)-N-(6-(((6-cyclopropylimidazo[1,2-a]pyridin-2-yl)methyl)amino)pyrimidin-4-yl)acetamide], for which the EC50 in experiment [1] is more than 9 µM.

Turning to `O=C(Cc1ncn2ccc(Cl)cc12)Nc1cnnc(OCc2cn3cc(C4CC4)ccc3n2)c1` [Example 34, 2-(7-chloroimidazo[1,5-a]pyridin-1-yl)-N-(6-((6-cyclopropylimidazo[1,2-a]pyridin-2-yl)methoxy)pyridazin-4-yl)acetamide], the EC50 in experiment [1] is 0.05 to 0.5 µM. Same read-out and setting: the same measure for `Cc1cc(C(=N)N)cc(C)c1CNc1cc(OCc2cn3cc(Cl)ccc3n2)ncn1` [Example 69, 4-(((6-((6-chloroimidazo[1,2-a]pyridin-2-yl)methoxy)pyrimidin-4-yl)amino)methyl)-3,5-dimethylbenzimidamide formic acid salt]: not above 0.005 µM; for `COC(C(=O)Nc1cc(NCc2cn3cc(C4CC4)ccc3n2)ncn1)c1ncn2ccc(Cl)cc12` (stereo not shown) [Example 6, 2-(7-chloroimidazo[1,5-a]pyridin-1-yl)-N-(6-(((6-cyclopropylimidazo[1,2-a]pyridin-2-yl)methyl)amino)pyrimidin-4-yl)-2-methoxyacetamide]: 0.05 to 0.5 µM.

`COc1ccc(-n2cnnn2)c(CNc2cc(C(O)c3cn4cc(C5CC5)ccc4n3)ncn2)c1F` (stereo not shown) [Example 63, (6-cyclopropylimidazo[1,2-a]pyridin-2-yl)(6-((2-fluoro-3-methoxy-6-(H-tetrazol-1-yl)benzyl)amino)pyrimidin-4-yl)methanol]: in experiment [1], the EC50 was 0.005 to 0.05 µM. Same read-out and setting: the same measure for `C[C@H](c1cccc(Cl)c1)[C@@H](C)C(=O)Nc1cc(NCc2cn3cc(C4CC4)ccc3n2)ncn1` [Example 134, (2R,3S)-3-(3-chlorophenyl)-N-(6-(((6-cyclopropylimidazo[1,2-a]pyridin-2-yl)methyl)amino)pyrimidin-4-yl)-2-methylbutanamide]: 0.5 to 9 µM.
